Patent US20090110708A1, “ANIMATE TISSUE ANTISEPSIS” (priority 2007, published 2009)

Test system: Staphylococcus aureus
Experiment: Kill of Staphylococcus aureus inoculated onto inanimate porcine intestine by forced evaporation of the applied solution
Assay type: cell-based

Molecule | death of the organisms (kill by enhanced evaporation) (initial H2O2 concentrations 4%-10% (vol.), 16 mg/cm^2 on tissue, blown air 50° C., 5.0 m/sec) | log reduction (no alcohol, 3 minute dry time) | log reduction (no alcohol, 3.5 minute dry time) | log reduction (no alcohol, 4 minute dry time) | log reduction (no peroxide, 10% alcohol (EtOH))
OO [H2O2, hydrogen peroxide] | significantly killed | 2.21 | 2.68 | 1.79 | 
ethyl alcohol [10% alcohol (EtOH), reference compound] |  |  |  |  | no measurable log reduction
